Source: the RepoRT retention time repository (doi:10.1016/j.chroma.2019.01.023)
Structures can show the parent of a compound that is named as a salt.

How the values were obtained:
Settings in all cases: stereoisomer not certain
[1] = HILIC, Merck SeQuant ZIC-pHILIC, 150 × 2.1 mm, 5 µm, 40 °C, 0.3 mL/min, estimated dead time 1.1 min; A: acetonitrile; B: water + 2.8 mM ammonium formate, pH 9; gradient (min/%B) 0/5 1/5 10/51 13/51 13.1/5 20/5
[2] = HILIC, Waters ACQUITY UPLC BEH Amide, 150 × 2.1 mm, 1.7 µm, 40 °C, 0.5 mL/min, estimated dead time 0.66 min; A: 5% water + 95% acetonitrile; B: 70% water + 30% acetonitrile + 10 mM ammonium formate, pH 6.5; gradient (min/%B) 0/0 2/0 20/70 23/70 24/0 31/0
[3] = RP, Phenomenex Kinetex C18, 150 × 2.1 mm, 1.7 µm, 30 °C, 0.3 mL/min, estimated dead time 1.1 min; A: water + 0.1% formic acid, pH 3; B: acetonitrile + 0.1% formic acid, pH 3; gradient (min/%B) 0/2 14/100 17/100 17.1/2 25/2

| Structure (SMILES) | LC retention time [1] [min] | LC retention time [2] [min] | LC retention time [3] [min] |
| --- | --- | --- | --- |
| O=C1OC(C(O)CO)C(O)C1O [L-GULONOLACTONE] | 7.2 | 3.12 | – |
| CCCCCCCCCCCC(=O)OC(CC(=O)[O-])C[N+](C)(C)C (stereo not given) [LAUROYLCARNITINE] | – | 6.24 | – |
| NC(=O)C=CC(=O)O [MALEAMATE] | – | 2.1 | – |
| OCC1OC(OCC2OC(O)C(O)C(O)C2O)C(O)C(O)C1O (stereo not given) [MELIBIOSE] | 9.37 | 11.8 | – |
| COC(=O)CC(C)=O [METHYL ACETOACETATE] | – | 1.63 | – |
| COC1OC(CO)C(O)C(O)C1O (stereo not given) [METHYL GALACTOSIDE] | 6.42 | 4.01 | – |
| CN=C(N)N [METHYLGUANIDINE] | – | 8 | – |
| CC(C(=O)O)C(=O)O [METHYLMALONATE] | – | – | 2.19 |
| COC(=O)CCCC(=O)O [MONOMETHYLGLUTARATE] | – | 2.48 | – |
| OC1C(O)C(O)C(O)C(O)C1O (stereo not given) [MYOINOSITOL] | 9.47 | 11 | – |
| C[N+](C)(C)CCCCC(N)C(=O)O (stereo not given) [N,N,N-TRIMETHYLLYSINE] | – | 0.83 | – |
| CN(C)c1ccc(N)cc1 [N,N-DIMETHYL-1,4-PHENYLENEDIAMINE] | – | 0.91 | – |
| CN(C)C(N)=NCCCC(N)C(=O)O (stereo not given) [N,N-DIMETHYLARGININE] | – | 13 | – |
| CC(=O)NC(CC(N)=O)C(=O)O (stereo not given) [N-ACETYLASPARAGINE] | 7.88 | 8.1 | – |
| CC(=O)NCCCCN [N-ACETYLPUTRESCINE] | – | 8.45 | – |
| CC(=O)NC(CO)C(=O)O (stereo not given) [N-ACETYLSERINE] | 7.56 | 5.57 | – |
| O=CNCC(=O)O [N-FORMYLGLYCINE] | 7.76 | 4.89 | – |
| CNC(CC(=O)O)C(=O)O (stereo not given) [N-METHYLASPARTATE] | 8.28 | 11.6 | – |
| CNC(CCC(=O)O)C(=O)O (stereo not given) [N-METHYLGLUTAMATE] | 8.12 | 11.1 | – |
| CNCCc1c[nH]c2ccccc12 [N-METHYLTRYPTAMINE] | – | 6.64 | – |
| NC(=O)c1ccc[n+](C2OC(COP(=O)(O)OP(=O)(O)OCC3OC(n4cnc5c(N)ncnc54)C(OP(=O)(O)O)C3O)C(O)C2O)c1 (stereo not given) [NADP] | – | – | 1.41 |
| NC(=O)c1ccc[n+](C2OC(COP(=O)(O)OP(=O)(O)OCC3OC(n4cnc5c(=O)[nH]cnc54)C(O)C3O)C(O)C2O)c1 (stereo not given) [NICOTINAMIDE HYPOXANTHINE DINUCLEOTIDE] | – | – | 1.45 |
| NC(=O)c1cccnc1 [NICOTINAMIDE] | – | 1.38 | – |
| CN1CCCC1c1cccnc1 (stereo not given) [NICOTINE] | – | 2.9 | – |
| NCCCNCCCN [NORSPERMIDINE] | – | 8.25 | – |

| Structure (SMILES) | LC retention time [1] [min] | LC retention time [2] [min] | LC retention time [3] [min] |
| --- | --- | --- | --- |
| O=C([O-])c1cc(=O)[nH]c(=O)[nH]1 [OROTATE] | 7.34 | 3.49 | – |
| CCCCCCCCCCCCCCCC(=O)OC(CC(=O)[O-])C[N+](C)(C)C (stereo not given) [PALMITOYLCARNITINE] | – | 5.9 | – |
| CCCCC(=O)[O-] [PENTANOATE] | – | 8.25 | – |
| NCCc1ccccc1 [PHENETHYLAMINE] | – | 7 | – |
| O=C([O-])Cc1ccccc1 [PHENYLACETATE] | – | – | 3.97 |
| NCC(O)c1ccccc1 (stereo not given) [PHENYLETHANOLAMINE] | – | 7.74 | – |
| O=C(O)C1CCCCN1 (stereo not given) [PIPECOLATE] | – | – | 1.38 |
| CC(=O)C1CCC2C3CC=C4CC(OS(=O)(=O)O)CCC4(C)C3CCC12C (stereo not given) [PREGNENOLONE SULFATE] | – | – | 8.69 |
| O=C(O)C1CCCN1 (stereo not given) [PROLINE] | 7.67 | 8.55 | – |
| NCCCCN [PUTRESCINE] | – | 0.94 | – |
| Cc1ncc(COP(=O)(O)O)c(C=O)c1O [PYRIDOXAL-PHOSPHATE] | – | – | 1.5 |
| c1ccc2ncccc2c1 [QUINOLINE] | – | 0.91 | – |
| NC(CSCC(=O)O)C(=O)O (stereo not given) [S-CARBOXYMETHYLCYSTEINE] | 6.4 | 2.47 | – |
| CNCC(=O)O [SARCOSINE] | – | 9.54 | – |
| CCCCCCCCCCCCCCCC(O)C(N)CO (stereo not given) [SPHINGANINE] | – | 5.14 | – |
| CCCCCCCCCCCCCC=CC(O)C(COP(=O)([O-])OCC[N+](C)(C)C)NC(=O)CCCCCCCCCCCCCCCCC (stereo not given) [SPHINGOMYELIN] | – | 5.7 | – |
| OCC1OC(OC2(CO)OC(CO)C(O)C2O)C(O)C(O)C1O (stereo not given) [SUCROSE] | 8.77 | 10.2 | – |
| NCCS(=O)(=O)O [TAURINE] | 9.1 | 8.04 | – |
| NC(N)=S [THIOUREA] | – | 1.17 | – |
| CC(O)C(N)C(=O)O (stereo not given) [THREONINE] | – | 10.5 | – |
| OCC1OC(OC2OC(CO)C(O)C(O)C2O)C(O)C(O)C1O (stereo not given) [TREHALOSE] | 9.23 | 11.3 | – |
| C[n+]1cccc(C(=O)[O-])c1 [TRIGONELLINE] | – | 7.85 | – |
| NCCc1ccc(O)cc1 [TYRAMINE] | – | 7.72 | – |
| CC(C)C(N)C(=O)O (stereo not given) [VALINE] | 7.72 | 8.75 | – |
